{"source": "paper PMC4252588", "about": "(FEBS letters, 2014)", "key": {"Tulahuen CYP51 [1]": {"biological_target": "T1, Tulahuen CYP51 (Trypanosoma cruzi, UniProt Q7Z1V1)", "settings": "Tulahuen T. cruzi CYP51; cited from earlier work"}, "[2]": {"test_system": "Y strain T. cruzi epimastigotes", "experiment": "Insect stage", "format": "cell-based, Trypanosoma cruzi", "settings": "insect stage of Y T. cruzi; 1 µM"}, "L. infantum CYP51": {"test_system": "L. infantum CYP51", "settings": "cited from earlier work"}, "Tulahuen CYP51 [3]": {"biological_target": "T1, Tulahuen CYP51", "experiment": "Reconstituted CYP51 activity assay, eburicol 14α-demethylation", "format": "biochemical"}, "[4]": {"test_system": "Y strain T. cruzi amastigotes", "experiment": "Cellular infection assay, human stage", "format": "cell-based, Trypanosoma cruzi"}, "T. brucei CYP51": {"test_system": "T. brucei CYP51", "settings": "cited from earlier work"}, "Y-CYP51A [5]": {"biological_target": "T2, Y-CYP51A (Trypanosoma cruzi, UniProt Q7Z1V1, P355S)", "experiment": "Type 2 spectral response titration with inhibitors", "format": "binding", "settings": "calculated from the Y-CYP51A titration curves; [P450] 0.4 µM"}, "Tulahuen T. cruzi": {"test_system": "Tulahuen T. cruzi", "settings": "cells infected by Tulahuen T. cruzi; cited from earlier work"}, "[6]": {"test_system": "Tulahuen strain of T. cruzi", "settings": "mice infected with Tulahuen strain; cited from earlier work"}, "Tulahuen CYP51 [7]": {"biological_target": "Tulahuen CYP51 (Trypanosoma cruzi, UniProt Q7Z1V1, A9G)", "experiment": "Type 1 spectral response, substrate binding"}, "Y-CYP51A [8]": {"biological_target": "T2, Y-CYP51A", "experiment": "Reconstituted CYP51 activity assay, eburicol 14α-demethylation", "format": "biochemical"}, "Y-CYP51A [9]": {"biological_target": "T2, Y-CYP51A", "experiment": "Type 1 spectral response, substrate binding"}, "[10]": {"settings": "Tulahuen CYP51, inhibitor/enzyme/substrate 1:1:100, 1 h"}}, "note": "Like-named read-outs stand apart in the source and are kept apart here.", "data": [{"compound": "O=C(N[C@@H](Cn1ccnc1)c1ccc(-c2ccc(F)cc2)cc1F)c1ccc(-c2nnc(-c3ccccc3)o2)cc1", "note": "[VFV, (R)-N-(1-(3,4'-difluorobiphenyl-4-yl)-2-(1H-imidazol-1-yl)ethyl)-4-(5-phenyl-1,3,4-oxadiazol-2-yl)benzamide]", "values": [{"measurement": "Inhibitory potency", "setting": "Tulahuen CYP51 [1]", "result": "equally potent"}, {"measurement": "Antiparasitic potency compared with VNI", "setting": "[2]", "result": "higher antiparasitic potency"}, {"measurement": "Inhibitory potency", "setting": "L. infantum CYP51", "result": "equally potent"}, {"measurement": "Inhibition at I/E/S molar ratio 1:1:100, one hour reaction", "setting": "Tulahuen CYP51 [3]; [10]", "result": 100, "unit": "%"}, {"measurement": "Antiparasitic potency compared with VNI", "setting": "[4]; human stage of Y T. cruzi, H9C2 cells, 48 h", "result": "higher antiparasitic potency"}, {"measurement": "Inhibitory potency", "setting": "T. brucei CYP51", "result": "equally potent"}, {"measurement": "Apparent binding efficiency", "setting": "Y-CYP51A [5]", "result": 87}]}, {"compound": "O=C(N[C@@H](Cn1ccnc1)c1ccc(Cl)cc1Cl)c1ccc(-c2nnc(-c3ccccc3)o2)cc1", "note": "[VNI, (R)-N-(1-(2,4-dichlorophenyl)-2-(1H-imidazol-1-yl)ethyl)-4-(5-phenyl-1,3,4-oxadiazol-2-yl)benzamide]", "values": [{"measurement": "Concentration that completely eradicates the parasite", "setting": "Tulahuen T. cruzi", "result": 8, "unit": "nM"}, {"measurement": "EC50", "setting": "Tulahuen T. cruzi", "result": 1.3, "unit": "nM"}, {"measurement": "Outcome of treatment", "setting": "[6]", "result": "cure both the acute and chronic models of Chagas disease"}, {"measurement": "Inhibition at I/E/S molar ratio 1:1:100, one hour reaction", "setting": "Tulahuen CYP51 [3]", "result": 100, "unit": "%"}, {"measurement": "Inhibition of the enzyme", "setting": "Tulahuen CYP51 [3]", "result": "completely inhibited"}, {"measurement": "EC50", "setting": "[4]; Trypanosoma cruzi, Vero, in Homo sapiens", "result": "> 5", "unit": "nM"}, {"measurement": "Amastigotes within host cells after treatment", "setting": "[4]; cardiomyoblasts and Vero cells, up to 1 µM", "result": "some trace of amastigotes being observed"}, {"measurement": "Apparent binding efficiency", "setting": "Y-CYP51A [5]", "result": 9}]}, {"compound": "O=C(N[C@@H](Cn1cncn1)c1ccc(Cl)cc1Cl)c1ccc(-c2nnc(-c3ccccc3)o2)cc1", "note": "[VNT, (R)-N-(1-(2,4-dichlorophenyl)-2-(1H-1,2,4-triazol-1-yl)ethyl)-4-(5-phenyl-1,3,4-oxadiazol-2-yl)benzamide]", "values": [{"measurement": "Inhibitory potency", "setting": "Tulahuen CYP51 [1]", "result": "as potent as VNI"}, {"measurement": "Inhibitory potency", "setting": "L. infantum CYP51", "result": "weaker inhibitory effect"}, {"measurement": "Inhibition of the enzyme", "setting": "Tulahuen CYP51 [3]; Tulahuen CYP51, equimolar amounts of inhibitor", "result": "completely inhibited"}, {"measurement": "Inhibition at I/E/S molar ratio 1:1:100, one hour reaction", "setting": "Tulahuen CYP51 [3]; [10]", "result": 100, "unit": "%"}, {"measurement": "Inhibitory potency", "setting": "T. brucei CYP51", "result": "weaker inhibitory effect"}, {"measurement": "Apparent binding efficiency", "setting": "Y-CYP51A [5]", "result": 2}]}, {"compound": "C=C(CCC(C)C1CCC2(C)C3=C(CCC12C)C1(C)CCC(O)C(C)(C)C1CC3)C(C)C", "note": "(stereo not drawn) [Substrate, eburicol]", "values": [{"measurement": "Kd", "setting": "Tulahuen CYP51 [7]", "result": 800, "unit": "nM"}, {"measurement": "ΔA (% low-to-high spin transition)", "setting": "Tulahuen CYP51 [7]; Tulahuen CYP51", "result": 36, "unit": "%"}, {"measurement": "Turnover number", "setting": "Y-CYP51A [8]", "result": "2.0±0.2 nmol substrate/nmol P450 /min"}, {"measurement": "Turnover number", "setting": "Tulahuen CYP51 [3]; Tulahuen CYP51", "result": "5.6±0.3 nmol substrate/nmol P450 /min"}, {"measurement": "Kd", "setting": "Y-CYP51A [9]", "result": 1540, "unit": "nM"}, {"measurement": "ΔA (% low-to-high spin transition)", "setting": "Y-CYP51A [9]; Y-CYP51A", "result": 48, "unit": "%"}]}]}
